Data from patent US20240261267A1, “METHODS FOR TREATING MULTIPLE SCLEROSIS” (Vanda Pharmaceuticals Inc., priority 2021, published 2024).

Tested on: primary mouse OPCs
Assay: agarose drop migration assay
Type: cell-based
Conditions: any of the concentrations tested (0.3 nM to 3000 nM); after 5 days
Description: The effects of ponesimod, a selective S1P1 receptor agonist, and A971432, a selective S1P5 receptor agonist, on oligodendrocyte precursor cell (OPC) migration and differentiation were evaluated. Nine concentrations were tested (logarithmic dilutions ranging from 0.3 nM to 3000 nM, n=6 per concentration). Fingolimod phosphate (P-FTY720, 3000 nM, n=6) was included as a positive control, 0.1% DMSO was included (min.one/plate) as a negative control. Primary mouse OPCs were harvested on postnatal day 0 or 1 and mixed glia cultures were maintained for 14 days. Primary OPCs were then purified using the shake-off method, and used for either a migration assay, or a differentiation assay, as detailed below. To harvest primary mouse OPCs, cortices are isolated from mouse pups on postnatal day 0 or 1 and placed in ice-cold Dulbecco's Modified Eagle Medium (DMEM) (Sigma Aldrich, Overijse, BE). The cortices are homogenized and centrifuged for 5 minutes at 300 G. The supernatant is removed, and a papain solution is added for 30 minutes (125 uL DMEM solution per brain containing 20 units/ml papain and 40 μg/ml DNase, at 37 degrees). Digestion is inactivated by adding 9 ml cold DMEM. The solution is then centrifuged for 5 minutes at […]. The supernatant is carefully removed, and the pellet is resuspended in 2-5 ml culture medium (DMEM with 10% fetal calf serum (Biowest, Nuaillé, FR) and 1% pen/strep (Sigma Aldrich, Overijse, BE)). […] Cell suspension is divided over PLL (Sigma Aldrich, Overijse, BE)-coated flasks (2 brains per flask) and DMEM is added to a final volume of 10 ml. DMEM is replaced on day 4, 7, and 11. On day 7 and 11, insulin (Sigma Aldrich, Overijse, BE) is added to the medium (5μg/ml). On day 14, OPCs are separated from astrocytes by the shake-off method: flasks are placed on a shaker for 45 minutes at 75 rpm (37 degrees). […] The extent of cell migration is then measured after 5 days using Incucyte imaging analysis and fluorescent endpoint staining. For each well, the 15-20 cells that migrated the furthest away from the agarose drop are measured and averaged. […]

Row | Compound | migration distance
1 | O=C(O)C1CN(Cc2ccc(OCc3ccc(Cl)c(Cl)c3)cc2)C1 [A97] | did not affect migration distance
2 | CCC/N=C1\S/C(=C\c2ccc(OC[C@H](O)CO)c(Cl)c2)C(=O)N1c1ccccc1C [ponesimod, (R)-5-[3-chloro-4-(2,3-dihydroxy-propoxy)-benz[Z]ylidene]-2-([Z]-propylimino)-3-o-tolyl-thiazolidin-4-one] | did not affect migration distance
